Reference: US20170058314A1, “NOVEL METHODOLOGY FOR IDENTIFYING ANTI-PERSISTER ACTIVITY AND ANTIMICROBIAL SUSCEPTIBILITY FOR BORRELIA BURGDORFERI AND OTHER BACTERIA” (priority 2014, published 2017)

What was measured:
[1] = system: B. burgdorferi (growing, strain B31); experiment: MIC determination, standard microdilution method; type: cell-based, Borrelia burgdorferi; settings: Borreliella burgdorferi; growing B. burgdorferi; read-out: MIC
[2] = system: round body form of B. burgdorferi; experiment: Subculture test of drug-treated round body form
Description: For induction of round body form of B. burgdorferi, B. burgdorferi spirochetes (1×10^5 spirochetes/mL) were cultured in BKS-H medium for 6 days without shaking. After the 6-day incubation, amoxicillin at a final concentration of 50 μg/mL was added to the culture for round body form induction. After 72 h induction at 33° C., the round body forms of B. burgdorferi were examined by the microscopy. The round body cells (100 μL) were transferred to 96-well tissue culture microplates for evaluation of the effects of antibiotic treatment.

[3] = system: round body form of B. burgdorferi; experiment: SYBR Green I/PI assay on amoxicillin-induced round body form
[4] = system: B. burgdorferi log and stationary phase cultures; experiment: epi-fluorescence microscope counting after antibiotic exposure (persister frequency, planktonic forms); type: cell-based, Borrelia burgdorferi
[5] = system: stationary phase B. burgdorferi persisters (strain B31); experiment: NCI compound library rescreen, epifluorescence microscope counting; settings: Borreliella burgdorferi, 168 h
[6] = system: stationary phase B. burgdorferi; experiment: Subculture test of drug-treated stationary phase B. burgdorferi; type: cell-based, Borrelia burgdorferi; settings: 10 μg/mL
Description: Seven-day-old B. burgdorferi culture (1×10^7 spirochetes/mL) (500 μL) was treated with drugs or drug combinations in Eppendorf tubes. After incubation at 33° C. for 7 days without shaking, the cells were collected by centrifugation and rinsed with 1 mL fresh BSK-H medium followed by resuspension in 500 μL fresh BSK-H medium without antibiotics. Then 50 μL of cell suspension was transferred to 1 mL fresh BSK-H medium for subculture at 33° C. for 2 weeks. Cell proliferation was assessed using SYBR Green I/PI assay and bacterial counting chamber (Hausser Scientific Partnership) by microscopy as described above.

[7] = system: stationary phase B. burgdorferi persisters (strain B31); experiment: SYBR Green I/PI viability assay (plate reader), FDA-approved drug library screen
[8] = system: stationary phase B. burgdorferi persisters (strain B31); experiment: NCI compound library screen, SYBR Green I/PI assay (plate reader)
[9] = 10 μg/mL, 7 days treatment, then subculture
[10] = 7 days treatment, then subculture
[11] = 50 μM, 7 days, stationary phase

For C[C@H]1c2cccc(O)c2C(=O)C2=C(O)[C@]3(O)C(=O)C(C(N)=O)=C(O)[C@@H](N(C)C)[C@@H]3[C@@H](O)[C@@H]21 [Doxycycline], the MIC [1] was ≤ 0.25 µg/mL, the “Spirochetes number After 10 day subculture” value [2, 9] was 1 × 10^6 and the “Spirochetes number After 20 day subculture” value [2, 9] was “about 5×10^6”. For the same molecule, the “Spirochetes number After 20 day subculture” value ([2]; 10 μg/mL, 7 days treatment, then subculture, listed as Dox) was 5 × 10^6, the viability at 10 µg/mL ([2]; Borreliella burgdorferi, 168 h, read-out: Residual viable cells) was 44% and the “Live cell %, round body form” value ([3]; 10 μg/mL drugs or combinations, 7 days) was 49%. For the same molecule, the viability at 50 µM ([3]; Borreliella burgdorferi, 168 h, read-out: Residual viable cells (SYBR Green I/PI assay)) was 42%, the “Ratios of green/red fluorescence, Primary screening” value ([3]; round body form, 50 μM, 7 days) was 6.34 and the “Ratios of green/red fluorescence, Rescreening (first column)” value ([3]; round body form, 50 μM, 7 days) was 6.39. For the same molecule, the “Ratios of green/red fluorescence, Rescreening (second column)” value ([3]; round body form, 50 μM, 7 days) was 6.67, the “persister frequency (percentage of live cells after antibiotic treatment, in brackets)” value ([4]; 3-day log phase culture) was “(6.4%)” and the “persister frequency (in brackets)” value ([4]; 7-day stationary phase culture) was “(24%)”. For the same molecule, the “persister frequency (in brackets)” value ([4]; 10-day stationary phase culture) was “(~25%)”, the “planktonic form cells remaining green (live)” value ([4]; 10-day-old stationary phase culture, 10 μg/mL, 7 days, FIG. 17A) was “about 71%” and the viability at 50 µM ([5]; read-out: Activity against persisters (residual viable cell percentage)) was 77%. The viability at 20 µM ([5]; read-out: Residual viable cells (%) 20 μM (epifluorescence microscope counting)) was 77%, the viability at 50 µM ([5]; read-out: Residual viable cells (%) 50 μM (epifluorescence microscope counting)) was 77% and the viability at 50 µM ([5]; read-out: Residual viable cells (epifluorescence microscope counting)) was 77%. For the same molecule, the “G/R ratio immediately after treatment” value ([6]; 7 days) was 6.71, the “G/R ratio after 7 day subculture” value [6, 10] was 6.23 and the “G/R ratio after 15 day subculture” value [6, 10] was 6.89. The “Spirochetes after 7 day subculture (microscope counting)” value [6, 10] was 9 × 10^5, the “Spirochetes after 15 day subculture (microscope counting)” value [6, 10] was ~5×10^6 and the “Spirochetes after 15 day subculture (microscope counting)” value ([6]; 7 days treatment, then subculture, listed as Dox) was 4 × 10^6. For the same molecule, the viability at 10 µg/mL ([6]; Borreliella burgdorferi, 168 h, seven-day-old culture, 7 days, read-out: Residual viable cells (epifluorescence microscope counting)) was 67%, the “Ratio of Green/Red fluorescence, Primary screening” value [7, 11] was 7.62 and the “Ratio of Green/Red fluorescence, Rescreening (first column)” value [7, 11] was 7.35. For the same molecule, the “Ratio of Green/Red fluorescence, Rescreening (second column)” value [7, 11] was 7.58, the viability at 50 µM ([7]; Borreliella burgdorferi, 168 h, read-out: Residual viable cells (regression equation, SYBR Green I/PI assay)) was 67% and the “Residual viable cells (SYBR Green I/PI assay)” value ([8]; 50 μM, seven day old stationary phase culture, 7 days) was 68%. For the same molecule, the viability at 20 µM ([8]; Borreliella burgdorferi, 168 h, read-out: Residual viable cells (%) 20 μM (SYBR Green I/PI assay), 20 μM, seven day old stationary phase, 7 days) was 76% and the viability at 50 µM ([8]; Borreliella burgdorferi, 168 h, read-out: Residual viable cells (SYBR Green I/PI assay), 50 μM, seven day old stationary phase culture, 7 days) was 75%.
